In PubChem BioAssay (NCI) one finds GI50 and TGI data, which are given here for seven molecules.

Test systems include HCT-15 colon; SN12C renal; MDA-MB-435; A549 NSCLC; HCC-2998 colon; NCI-H522 lung; SK-MEL-2 melanoma; HOP-62 NSCLC; MALME-3M melanoma; U251 CNS.
What all share (assay): NCI-60 cell line screen, 48 h

The structures appear in SMILES notation.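 Briefly, cells in 96-well plates were exposed to five compound concentrations for 48 h, and endpoints were estimated by linear interpolation. At the GI50, growth is halved. Definition used: TGI = concentration required for complete inhibition of growth.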 Some results are limits rather than exact numbers.

In the case of `CC(C)c1[nH]nc2c(NCc3ccc(-c4ccccn4)cc3)nc(SCCN(C)C)nc12`, the GI50 in the assay with HCT-15 colon was 0.0872 µM; with SN12C renal it was less than 0.0199 µM; with MDA-MB-435, less than 0.0176 µM; in the assay with HCC-2998 colon, less than 0.0185 µM; in the assay with NCI-H522 lung it was less than 0.015 µM; in the assay on SK-MEL-2 melanoma, 0.0798 µM. Besides, the GI50 in the assay with HOP-62 NSCLC was less than 0.0177 µM; with MALME-3M melanoma, 0.0986 µM; in the assay on U251 CNS, 0.0474 µM. The TGI was 10.9 µM in the assay with HCT-15 colon; 12.3 µM with SN12C renal; 0.797 µM with MDA-MB-435; 13 µM with A549 NSCLC; 0.844 µM in the assay with HCC-2998 colon; less than 0.0232 µM in the assay with NCI-H522 lung. Besides, the TGI stood at 0.269 µM with SK-MEL-2 melanoma, 0.236 µM in the assay on HOP-62 NSCLC, 0.642 µM with MALME-3M melanoma and 10.7 µM in the assay on U251 CNS.

In the case of `COc1cc2c(NC3CCN(C(C)C)CC3)nc(C3CCCCC3)nc2cc1OCCCN1CCCC1`, the GI50 in the assay with HCT-15 colon is 9.82 µM; in the assay with SN12C renal it was 12 µM; with MDA-MB-435, 1.67 µM; in the assay on A549 NSCLC it was 3.38 µM; in the assay with HCC-2998 colon, 9.03 µM; with NCI-H522 lung, 2.95 µM. The GI50 is 2.18 µM in the assay with SK-MEL-2 melanoma, 3.22 µM in the assay with HOP-62 NSCLC, 1.8 µM with MALME-3M melanoma and 1.97 µM with U251 CNS. For the same molecule, the TGI worked out at 23.9 µM in the assay on HCT-15 colon; 25.1 µM in the assay with SN12C renal; 3.34 µM in the assay with MDA-MB-435; 13.3 µM in the assay on A549 NSCLC; 27.4 µM with HCC-2998 colon; 8.53 µM in the assay on NCI-H522 lung. Also, the TGI came to 4.59 µM with SK-MEL-2 melanoma, 10.1 µM in the assay on HOP-62 NSCLC, 3.42 µM in the assay with MALME-3M melanoma and 5.11 µM with U251 CNS.

For the molecule `O=C(N=Nc1c(Cl)c(O)c2ccccc2c1O)C(=O)Nc1cccc(C(F)(F)F)c1`, the GI50 in the assay on HCT-15 colon is 3.21 µM; in the assay with SN12C renal, 1.77 µM; in the assay with MDA-MB-435, 1.89 µM; in the assay on A549 NSCLC, 3.79 µM; with HCC-2998 colon, 10.4 µM; in the assay with NCI-H522 lung, 2.82 µM. For the same molecule, the GI50 with SK-MEL-2 melanoma is 7.22 µM; in the assay with HOP-62 NSCLC it was 11.5 µM; with MALME-3M melanoma, 3.12 µM; with U251 CNS it was 3.05 µM. The TGI in the assay with HCT-15 colon stood at 12 µM; in the assay on SN12C renal, 3.79 µM; in the assay with MDA-MB-435, 3.43 µM; in the assay on A549 NSCLC, 16.7 µM; in the assay with HCC-2998 colon it was 22.9 µM; in the assay on NCI-H522 lung, 10.9 µM. The TGI was found to be 20.5 µM with SK-MEL-2 melanoma, 24.7 µM in the assay on HOP-62 NSCLC, 7.64 µM in the assay on MALME-3M melanoma and 10.9 µM in the assay with U251 CNS.

As for `C=C1C(=O)O[C@@H]2CC(CO)=C([C@@H](C)CCCO)[C@@H](OC(=O)/C(C)=C\C)[C@H]12`, the TGI in the assay on HCT-15 colon was 31.3 µM; with SN12C renal, 43.5 µM; in the assay on MDA-MB-435, greater than 52.4 µM; in the assay on A549 NSCLC it was greater than 71.9 µM; in the assay on HCC-2998 colon it was 29.6 µM; in the assay with NCI-H522 lung it was 15.3 µM. In addition, the TGI with SK-MEL-2 melanoma was 70.5 µM; in the assay with HOP-62 NSCLC it was greater than 100 µM; with MALME-3M melanoma it was 32.5 µM; in the assay on U251 CNS, 37.6 µM.

Take `c1cc(C2CCCCC2)ccc1-c1cnc2nonc2n1`: the GI50 in the assay with HCT-15 colon is 0.438 µM; in the assay with SN12C renal it was 1.1 µM; in the assay with MDA-MB-435, 0.237 µM; in the assay with A549 NSCLC it was 2.74 µM; in the assay with HCC-2998 colon it was 1.47 µM; with NCI-H522 lung, 0.548 µM. The GI50 in the assay with SK-MEL-2 melanoma is 1.31 µM; in the assay on HOP-62 NSCLC, 1.21 µM; in the assay on MALME-3M melanoma, 1.18 µM; in the assay on U251 CNS, 1.18 µM. Besides, the TGI with HCT-15 colon is 2.26 µM; with SN12C renal it was 3.21 µM; in the assay on MDA-MB-435, 0.65 µM; in the assay on A549 NSCLC, 12.2 µM; in the assay with HCC-2998 colon it was 2.94 µM; in the assay on NCI-H522 lung it was 2.56 µM. The TGI in the assay with SK-MEL-2 melanoma was 3.62 µM; in the assay with HOP-62 NSCLC it was 5.98 µM; in the assay with MALME-3M melanoma, 2.66 µM; in the assay on U251 CNS, 2.44 µM.

In the case of `Cc1nc2sc(C(=O)Nc3ccccc3)c(N)c2cc1C(O)c1ccccc1` (centres undefined), the GI50 is 0.17 µM with HCT-15 colon; 0.46 µM in the assay on SN12C renal; 0.0308 µM in the assay with MDA-MB-435; 0.421 µM in the assay with A549 NSCLC; 0.329 µM with HCC-2998 colon; 0.304 µM with NCI-H522 lung. Besides, the GI50 is 0.659 µM in the assay on SK-MEL-2 melanoma, 0.448 µM in the assay on HOP-62 NSCLC, 0.6 µM with MALME-3M melanoma and 0.292 µM in the assay with U251 CNS. In addition, the TGI with HCT-15 colon was greater than 100 µM; in the assay with SN12C renal, greater than 100 µM; with MDA-MB-435, 0.102 µM; in the assay with A549 NSCLC, greater than 100 µM; in the assay on HCC-2998 colon, 6.27 µM; in the assay on NCI-H522 lung, greater than 24.1 µM. Also, the TGI was greater than 100 µM in the assay on SK-MEL-2 melanoma, greater than 53.8 µM in the assay with HOP-62 NSCLC, 34.3 µM in the assay on MALME-3M melanoma and greater than 100 µM in the assay on U251 CNS.

With `CC(C)(C)C(=O)c1c(C(F)(F)F)n([O-])c2cc(Cl)c(Cl)cc2[n+]1=O`, the GI50 was 0.257 µM in the assay with HCT-15 colon; 0.778 µM in the assay on SN12C renal; 0.515 µM in the assay on MDA-MB-435; 0.952 µM with A549 NSCLC; 0.172 µM in the assay on HCC-2998 colon; 0.538 µM with NCI-H522 lung. Also, the GI50 in the assay on SK-MEL-2 melanoma is 0.903 µM; with HOP-62 NSCLC it was 1.53 µM; in the assay on MALME-3M melanoma it was 1.34 µM; with U251 CNS, 0.492 µM. The TGI came to 0.652 µM with HCT-15 colon; 2.09 µM in the assay on SN12C renal; 1.01 µM in the assay on MDA-MB-435; 2.39 µM in the assay on A549 NSCLC; 0.465 µM with HCC-2998 colon; 1 µM in the assay on NCI-H522 lung. Further, the TGI with SK-MEL-2 melanoma amounted to 2.28 µM; in the assay with HOP-62 NSCLC, 2.89 µM; in the assay on MALME-3M melanoma, 2.73 µM; with U251 CNS, 0.951 µM.
